This is an account of results in PubChem BioAssay AID1626 (SRMLSC, 2009).

The assay has as its system M. tuberculosis H37Rv growth inhibition. Kind of assay: M. tuberculosis H37Rv growth inhibitors, H37Rv strain (AID 1626). The note with it: for IC90: measured here: IC90 against H37Rv; for CC50: measured here: Vero cell cytotoxicity.

In the case of `CC[n+]1c(/C=C2\Sc3ccccc3N2C)ccc2cccc(C)c21`, the IC50 is 1.01 µM, the IC90 stood at 1.4 µM and the CC50 was found to be 2.41 µM.

`CCn1ccnc1CN(C)Cc1cn(-c2cccc(C)c2)nc1-c1cccc(F)c1`: the IC50 is 2.58 µM, the IC90 stood at 4.19 µM and the CC50 is above 40 µM.

In the case of `Cc1ccc(-c2c[n+](CC(=O)N3c4ccccc4Sc4ccccc43)c3n2CCC3)cc1`, the IC50 is 7.87 µM and the IC90 turned out to be 20.6 µM.

In the case of `O=C1CCCC(O)=C1C=Nc1ccc2c(c1)oc1ccccc12`, the IC50 is below 0.195 µM and the IC90 was above 100 µM.

In the case of `COc1cccc(-c2cc(C(=O)Nc3nc4ccccc4s3)c3ccccc3n2)c1`, the IC50 is 8.12 µM, the IC90 is above 100 µM and the CC50 was above 40 µM.

For `Cc1scc(C(=O)NCc2ccco2)c1-c1ccccc1`, the IC50 is 2.81 µM and the IC90 worked out at 9.77 µM.

Consider `Cn1cnc(Sc2ncnc3nc[nH]c23)c1[N+](=O)[O-]`, for which the IC50 was 8.98 µM and the concentration for an effect of 90% (IC90) stood at 16.1 µM.

For `O=C(/C=C/c1ccco1)Nc1nc(-c2ccccn2)cs1`, the IC50 was 0.446 µM, the IC90 was found to be 3.54 µM and the CC50 is above 40 µM.

On to `CNc1nc(-c2ccccn2)nnc1-c1ccccc1`, for which the IC50 is 8.5 µM, the IC90 was 11.1 µM and the cytotoxic concentration (CC50) stood at 11.3 µM.

For `CC1CC(C)CN(C(=O)c2ccc(CNc3c(N4CCCC4)c(=O)c3=O)cc2)C1` (stereo unspecified), the IC50 is 1.46 µM and the IC90 turned out to be 1.64 µM.

On to `Cc1ccc(C2CC(C(F)(F)F)n3nc(C(=O)NCc4ccco4)cc3N2)cc1` (stereo unspecified), for which the half-maximal inhibitory concentration (IC50) was 0.92 µM and the IC90 came to 1.79 µM.

As to `Oc1c(Cl)cc(Cl)cc1/C=C/c1ccc2cccc(O)c2n1`, the IC50 was 3.06 µM, the IC90 is above 100 µM and the CC50 worked out at 10.1 µM.

Turning to `CC(C)(C)c1ccc(-c2nc(NCc3cccnc3)c3ccccc3n2)cc1`, the IC50 was 4.81 µM, the IC90 was determined as 7.46 µM and the CC50 was above 40 µM.

The molecule `COc1ccc(/C=C/C(=O)c2ccc(C)c([N+](=O)[O-])c2)cc1O` showed a 90% effect concentration (IC90) above 100 µM and a CC50 of 34.8 µM.

Regarding `Cn1c(NC(=O)c2ccccc2NC(=O)C(C)(C)C)nc2ccccc21`, the CC50 was above 40 µM.

For the molecule `O=C(CCCSc1ccccc1)Nc1nc(-c2ccccn2)cs1`, the IC50 was 0.239 µM, the IC90 was 5.04 µM and the CC50 is above 40 µM.

Consider `CCCCCOc1ccc(Br)cc1CSC(=N)N`, for which the IC50 is 9.43 µM, the IC90 was determined as 12 µM and the CC50 was determined as 14.8 µM.

Take `Cc1ccc(OC(=O)c2sc3ncn(C)c(=O)c3c2C)cc1`: the IC50 is 1.49 µM and the IC90 amounted to 1.7 µM.

Regarding `CCOC(=O)COc1ccc2c(=O)c(-c3ccc(OC)c(OC)c3)c(C(=O)OCC)oc2c1`, the IC50 was 2.51 µM and the IC90 is 5.68 µM.

On to `O=C(NCc1ccco1)c1cnn2c1NC(c1ccc(Br)cc1)CC2C(F)(F)F` (stereo unspecified), for which the IC50 is 1.51 µM, the IC90 worked out at 1.71 µM and the CC50 is above 40 µM.

For the molecule `CCOc1ccc(/C=C/C(=O)c2ccccc2)cc1OC`, the 90% effect concentration (IC90) is above 100 µM and the CC50 was above 40 µM.

Take `O=S1(=O)CCC(N=Cc2ccc(-c3ccc(Cl)cc3)o2)C1` (stereo unspecified): the IC50 was 6.54 µM and the IC90 was above 100 µM.

Turning to `O=C(/C=C/c1cn(CC(O)CN2CCCCCC2)c2ccccc12)c1cccs1` (stereo unspecified), the IC50 is 0.993 µM, the IC90 is 1.95 µM and the CC50 was 20 µM.

In the case of `N#CC1=C(N)NC(SCC(=O)c2ccccc2)=C(C#N)C12CCCC2`, the IC50 was 7.73 µM and the IC90 is above 100 µM.

`Cc1ccccc1N1CCN(C2=NC(=O)/C(=C\c3cccs3)S2)CC1`: the IC50 is 14.2 µM, the IC90 turned out to be 21 µM and the CC50 was above 40 µM.

Take `CC(=O)Nc1nc(-c2cc([N+](=O)[O-])cs2)cs1`: the IC50 is below 0.195 µM and the IC90 was above 100 µM.

In turn, `Cc1cc(NC(=O)c2ccc(C)s2)n(-c2nc3ccccc3[nH]2)n1` yielded a CC50 above 40 µM.

For `Cc1ccc(Nc2nc(CSc3nnc(-c4cccs4)o3)cs2)cc1`, the IC50 is 6.8 µM, the IC90 was 15.9 µM and the CC50 is above 40 µM.

Take `CCCCn1c(O)c(C(CC)=Nc2ccc(OCC)cc2)c(=O)[nH]c1=O`: the IC50 was 7.89 µM, the IC90 is above 100 µM and the CC50 was above 40 µM.

`COc1ccc(N=C(NN)c2ccc3ccccc3n2)cc1`: the IC50 was 54.6 µM and the IC90 is above 100 µM.

`O=C(CCC(=O)Nc1ccc(Oc2ccccc2)cc1)NCCO` registered an IC90 above 100 µM.

Take `CC(C)Oc1ccc(C(=O)Nc2ccc(Cl)c(S(=O)(=O)Nc3ccc(Cl)cc3)c2)cc1`: the IC50 is 11.6 µM, the IC90 stood at 22.4 µM and the CC50 was 28.9 µM.

Regarding `CCN(CC(=O)NC(C)(C)C)C(=O)COc1c(Cl)cc(Cl)c2ccc(C)nc12`, the IC50 was 3.94 µM, the IC90 came out at 13.9 µM and the CC50 was 36.8 µM.

On to `Cc1nn2c(N3CCN(C)CC3)cc(C(C)(C)C)nc2c1-c1ccccc1`, for which the IC50 is 3.03 µM, the concentration for an effect of 90% (IC90) is 4.55 µM and the CC50 was 25.3 µM.

Regarding `COc1ccc(N2CCN(c3nc(NC(C)(C)C)nc(N4CCCCC4)n3)CC2)cc1`, the IC50 is 3.75 µM, the IC90 was 5.86 µM and the CC50 was above 40 µM.

Take `Cc1cc(NC(=O)c2cc(-c3ccncc3)nc3c(C)cccc23)no1`: the IC50 was 48.1 µM, the IC90 turned out to be 74.3 µM and the CC50 turned out to be 12.9 µM.

For `COc1ccc(NS(=O)(=O)c2ccc3nc(COc4cccc5ccccc45)[nH]c3c2)cc1`, the IC50 is 9.84 µM, the IC90 was 15 µM and the CC50 was 29.6 µM.

On to `COc1ccc(-c2nc(CN3CCCCC3c3nccn3C)c(C)o2)c(C)c1C` (stereo unspecified), for which the IC50 was 18.1 µM, the IC90 worked out at 40.9 µM and the CC50 stood at 22 µM.

Take `O=c1oc(/C=C/c2ccccc2)nc2ccccc12`: the IC50 was 12.7 µM and the IC90 is above 100 µM.

In the case of `COc1ccc(Cn2c(SCc3ccc(C)cc3)nc3cc(OC)c(OC)cc3c2=N)cc1Cl`, the IC50 was 2.5 µM, the IC90 was found to be 3.09 µM and the CC50 was 3.1 µM.

For `CCOc1ccc2nc(NC(=O)C(CC)Sc3nc(C)cc(=O)[nH]3)sc2c1` (stereo unspecified), the IC50 is 35.7 µM, the IC90 is above 100 µM and the CC50 was above 40 µM.

Consider `Cc1cc(NC(=O)c2c(F)cccc2F)n(-c2nc3ccccc3[nH]2)n1`, for which the IC50 was 11.3 µM, the IC90 came out at 21.2 µM and the CC50 turned out to be 35.7 µM.

For the molecule `Cc1cc(C(=O)Cn2cncn2)c(C)n1CCc1ccc(F)cc1`, the IC90 was above 100 µM.

For the molecule `N=c1c2c(ncn1Cc1ccco1)Oc1c(ccc3ccccc13)C2c1ccccc1` (stereo unspecified), the IC50 was 3.88 µM, the IC90 came to 5.43 µM and the CC50 amounted to 8.95 µM.

As for `Cc1cccc(Cc2cnc(N3C(=N)SC(c4ccccc4)C3=O)s2)c1` (stereo unspecified), the IC50 was 8.81 µM, the IC90 is above 100 µM and the CC50 amounted to 36.8 µM.

On to `CCCCCCCCCCNC(=O)C(=O)Nc1ccccn1`, for which the IC50 is 6.97 µM and the IC90 is above 100 µM.

With `Cc1ccc(Nc2ccccc2N)cc1`, the IC50 is 1.46 µM and the IC90 is 1.66 µM.

Consider `CCOC(=O)c1cc(C)nc(Sc2ccc(C)cc2)c1C#N`, for which the IC50 is 12.7 µM, the 90% effect concentration (IC90) is above 100 µM and the CC50 is above 40 µM.

As to `COc1c(N2CCNC(C)C2)c(F)cc2c(=O)c(C(=O)O)cn(C3CC3)c12` (stereo unspecified), the IC50 is below 0.195 µM and the IC90 is below 0.195 µM.

For `Cc1ccccc1-n1nnc2c(=O)oc3ccccc3c21`, the IC50 was 4.48 µM and the IC90 was above 100 µM.

With `Oc1ccccc1N1CCN(c2ncnc3sc(-c4ccccc4)cc23)CC1`, the IC50 is 9.21 µM, the IC90 was found to be 13 µM and the CC50 was above 40 µM.

For the molecule `OCCc1ccc(-c2ccc(Cl)cc2)o1`, the IC50 is 23.5 µM and the IC90 was above 100 µM.

On to `O=C(c1cc2nc(-c3ccc(F)cc3)cc(C(F)(F)F)n2n1)N1CCCCC1c1cccnc1` (stereo unspecified), for which the IC50 was 9.18 µM, the IC90 worked out at 14 µM and the CC50 is above 40 µM.

`CCOC(=O)c1ccc(NC(=O)c2cc3c(s2)CCC3)cc1`: the IC50 was 4.74 µM and the IC90 was above 100 µM.

Consider `Cc1ccc(-c2nc(C(Cl)Cl)c3ccccc3n2)cc1`, for which the IC50 is 4.4 µM, the IC90 is 12.1 µM and the CC50 stood at 0.923 µM.

Consider `COc1ccc(CCNc2cc(C)nc3c(-c4ccccc4)c(C)nn23)cc1OC`, for which the IC50 is 3.56 µM and the IC90 was 8.82 µM.

Regarding `CCN(CC)CCOC(=O)c1ccc(N/C=C(/C#N)c2nc(-c3ccc(OC)c(OC)c3)cs2)cc1`, the IC50 was 4.16 µM, the IC90 turned out to be 22.1 µM and the CC50 was above 40 µM.

Regarding `O=Cc1ccc2oc3nc4n(c(=O)c3c(=O)c2c1)CCCS4`, the IC50 was 0.441 µM and the IC90 worked out at 1.24 µM.

Consider `CCOC(=O)N1CCC(N2CCCC(C(=O)c3ccc4cc(OC)ccc4c3)C2)CC1` (stereo unspecified), for which the IC50 was 8.9 µM, the IC90 turned out to be 25.1 µM and the CC50 is above 40 µM.

On to `CCOC(=O)COc1ccc2c(C#N)c3ccccn3c2c1`, for which the IC50 is 1.67 µM and the IC90 stood at 8.66 µM.

As to `CN1CCN(c2ccc(C(=O)c3cn(-c4ccc(F)c(Cl)c4)nn3)cc2)CC1`, the IC50 was 3.43 µM, the IC90 is above 100 µM and the CC50 is 9.78 µM.

Consider `O=C(Nc1nc2c(F)cc(F)cc2s1)c1ccccn1`, for which the IC50 is 0.34 µM, the IC90 was found to be 1.49 µM and the CC50 came to 3.89 µM.

Regarding `O=C1CSc2ccc(C(=O)Nc3cccc(S(=O)(=O)Nc4ccc(Br)cc4)c3)cc2N1`, the IC50 was 7.03 µM, the IC90 came out at 11.9 µM and the CC50 was 16.5 µM.

In the case of `COc1ccc(N/C=C2\CCOC2=O)cc1`, the concentration for an effect of 90% (IC90) was above 100 µM.

Turning to `CCn1c([N+](=O)[O-])nc2c1c(=O)[nH]c(=O)n2C`, the IC50 was 0.823 µM, the IC90 turned out to be 1.64 µM and the CC50 turned out to be 11.6 µM.
